One data set relates to SARS-CoV-2. The settings on record: in vivo activity tests in mice; cited from earlier work.
A short description of data set [1]: Activity of ATV014 compared to GS-441524 (inventor's research). An excerpt:
(§1) The compound represented by the formula ATV014 is a derivative of the compound GS-441524.

From the text in data set [2]: as §1
A short description of data set [3]: Solid stability study (XRPD and HPLC purity after storage). The format is physicochemical. The text has this:
X-ray powder diffraction patterns were collected using a zero-background sample plate on a Bruker D8 Advance X-ray diffractometer equipped with an autosampler. The radiation source used was Cu Kα (λ=1.5418 Å), with the X-ray tube voltage set at 40 kV and the X-ray tube current set at 40 mA. The divergence slit for the X-rays was 0.6 mm. A suitable amount of the sample was placed in the center of the zero-background sample plate under the ambient condition and lightly pressed with a clean glass slide to obtain a smooth, flat surface. The zero-background sample holder was then fixed. Diffraction analysis of the sample was performed with a scan step size of 0.02° (2θ) over a range of 3-40° (2θ). The software used for data collection was DIFFRAC.COMMANDER, and the data were analyzed and presented using DIFFRAC.EVA. The instrument used for liquid chromatography analysis is the Agilent HPLC 1260 series. [table] The ATV014 crystalline form I obtained from Example 2, batch number 41579-025-C1, was used for solid stability studies. The samples were placed under the conditions shown in Table 5, and then their XRPD and purity were tested.

The next data set in a line: physchem. The format is physicochemical. As for the experimental part:
Based on the salt screening study results, the solubility of ATV014 crystalline form I obtained in Example 2, batch number 41579-025-C5, was determined at 37° C. in FaSSIF, FeSSIF, SGF, and water at 0.5 h, 2 h, and 24 h. The solubility of the sample is pH-dependent, meaning that the lower the pH, the higher the solubility.

Data set [4] is described as follows: Dynamic vapor sorption analysis (DVS), hygroscopicity. The format is physicochemical. Particulars: for DVS Hygroscopic weight gain %: 25° C., batch 41579-025-C5. As for the experimental part: Vapor sorption/desorption data of the sample was obtained using DVS Intrinsic. A sample of 10-50 mg was weighed and placed in the sample chamber for automatic weighing. Parameters were set according to Table 1 to analyze the hygroscopicity of the sample.
The ATV014 crystalline form I obtained in Example 2 with batch number 41579-025-C5 was subjected to PLM (Polarized Light Microscopy Analysis), XRPD (X-ray Powder Diffraction), DSC (Differential Scanning calorimetry), TGA (Thermogravimetric Analysis), and DVS (Dynamic Vapor Sorption Instrument) testing.

The mark [5] stands for this setting: 40° C./75% RH, open container, 7 days.
The mark [6] stands for this setting: 60° C., closed container, 7 days.
Setting [7] is: Room temperature/92.5% RH, open container, 7 days.

The text below walks through data of patent US20250049832A1, “CRYSTAL FORM OF NUCLEOSIDE COMPOUND” (priority 2021, published 2025).

≈ marks a conversion by molar mass, not a printed value.

Consider `N#C[C@@]1(c2ccc3c(N)ncnn23)O[C@H](CO)[C@@H](O)[C@H]1O` [GS-441524], for which, in the data set with SARS-CoV-2, the “antiviral activity compared to Remdesivir” value was “superior antiviral activity compared to Remdesivir”.
`N#C[C@@]1(c2ccc3c(N)ncnn23)O[C@H](COC(=O)C2CCCCC2)[C@@H](O)[C@H]1O` [ATV014]: the “activity compared to the compound GS-441524” value in data set [1] is recorded as “better”. Moreover, the “bioavailability compared to the compound GS-441524” value in data set [2] was “better”.
Take `N#C[C@@]1(c2ccc3c(N)ncnn23)O[C@H](COC(=O)C2CCCCC2)[C@@H](O)[C@H]1O` [ATV014 crystalline form I]: the Purity % was 98.12% in data set [3] (0 day (start of stability study), batch 41579-025-C1); 98.09% in data set [3] (setting [5]); 98.10% in data set [3] (setting [6]); 98.19% in data set [3] (setting [7]). Moreover, the XRPD result in data set [3] (setting [5]), in data set [3] (setting [6]) and in data set [3] (setting [7]) was “No change” throughout. The “physical and chemical properties after storage” value in data set [3] (7 days under 40° C./75% RH, 60° C., and 92.5% RH) is reported as “remained stable”. For the same molecule, in the data set “physchem”, the “crystalline form of remaining solids during solubility determination (XRPD)” value is “the crystalline form did not change”. Further, the Solubility in the data set “physchem” (37 °C, pH 1.24, simulated gastric fluid, thermodynamic from solid) was ~2900 µg/mL (≈ 7.22 mM); in the data set “physchem” (37 °C, pH 5.53, water, thermodynamic from solid), ~5 µg/mL (≈ 0.0125 mM); in the data set “physchem” (0.5 h, pH 1.24), 2480 µg/mL (≈ 6.18 mM); in the data set “physchem” (2 h, pH 1.24) it was 2560 µg/mL (≈ 6.38 mM); in “physchem” (24 h, pH 1.24) it was 2860 µg/mL (≈ 7.12 mM). The “XPRD (remaining solid)” value is reported as “Unchanged” in the data set “physchem” (24 h, pH 5.53); “Unchanged” in “physchem” (simulated gi fluid, 24 h, pH 1.24); “Unchanged” in “physchem” (simulated gi fluid, 24 h, pH 4.95); “Unchanged” in the data set “physchem” (simulated gi fluid, 24 h, pH 6.45). Moreover, the “hygroscopicity (DVS results)” value in data set [4] is recorded as “low hygroscopicity”. Further, the figures for the “DVS Hygroscopic weight gain %” value in data set [4] (80% RH) and in data set [4] (90% RH) were 80% RH: 0.31% and 90% RH: 0.40%, respectively. In data set [4] (after full sorption/desorption cycle), the “Crystalline form after DVS testing” value is listed as “unchanged after”.

As usually defined, the Solubility is the dissolved amount per volume that the medium holds.
